Assay results published in patent US7456171B2, “1,4-Diazabicyclo[3.2.2]nonanecarboxamide derivatives, preparation and therapeutic use thereof” (Sanofi-Aventis, priority 2002, dated 2008).

- melting point: 228 to 229 °C
SMILES: O=C(c1c[nH]c2nc(Cl)ccc12)N1CCN2CCC1CC2
